What was measured:
Experiment in all cases: KINOMEscan
Assay type in all cases: binding
[1] = molecular target: T1, RSK4(Kin.Dom.1-N-terminal) (Homo sapiens, UniProt Q9UK32); details: read-out: % control activity remaining
T1 construct: RSK4(Kin.Dom.1-N-terminal); purchased Eurofins DiscoverX KINOMEscan

PRP4 = molecular target: T2, PRP4 (Homo sapiens, UniProt Q13523); details: read-out: % control activity remaining
T2 construct: purchased Eurofins DiscoverX KINOMEscan

PCTK2 = molecular target: T3, PCTK2 (Homo sapiens, UniProt Q00537); details: for remaining binding at 1 µM: read-out: % control activity remaining
T3 construct: purchased Eurofins DiscoverX KINOMEscan
T3 sequence (Q00537 whole entry): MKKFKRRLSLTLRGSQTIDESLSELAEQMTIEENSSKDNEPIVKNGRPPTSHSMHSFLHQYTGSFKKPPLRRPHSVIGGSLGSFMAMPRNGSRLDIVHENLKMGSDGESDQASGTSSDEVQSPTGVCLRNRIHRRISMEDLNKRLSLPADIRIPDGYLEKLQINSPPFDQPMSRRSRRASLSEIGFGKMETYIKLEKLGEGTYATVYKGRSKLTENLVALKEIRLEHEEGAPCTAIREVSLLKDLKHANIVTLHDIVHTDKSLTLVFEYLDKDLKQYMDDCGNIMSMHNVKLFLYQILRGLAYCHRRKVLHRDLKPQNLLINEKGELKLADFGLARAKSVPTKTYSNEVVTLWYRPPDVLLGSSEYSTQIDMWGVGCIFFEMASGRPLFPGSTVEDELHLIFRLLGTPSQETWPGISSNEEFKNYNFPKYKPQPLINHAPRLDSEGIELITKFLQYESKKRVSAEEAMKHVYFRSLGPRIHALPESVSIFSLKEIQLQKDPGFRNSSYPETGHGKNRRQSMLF

PAK2 = molecular target: T4, PAK2 (Homo sapiens, UniProt Q13177); details: read-out: % control activity remaining
T4 construct: purchased Eurofins DiscoverX KINOMEscan

NEK11 = molecular target: T5, NEK11 (Homo sapiens, UniProt Q8NG66); details: read-out: % control activity remaining
T5 construct: purchased Eurofins DiscoverX KINOMEscan
T5 sequence (Q8NG66 1-645): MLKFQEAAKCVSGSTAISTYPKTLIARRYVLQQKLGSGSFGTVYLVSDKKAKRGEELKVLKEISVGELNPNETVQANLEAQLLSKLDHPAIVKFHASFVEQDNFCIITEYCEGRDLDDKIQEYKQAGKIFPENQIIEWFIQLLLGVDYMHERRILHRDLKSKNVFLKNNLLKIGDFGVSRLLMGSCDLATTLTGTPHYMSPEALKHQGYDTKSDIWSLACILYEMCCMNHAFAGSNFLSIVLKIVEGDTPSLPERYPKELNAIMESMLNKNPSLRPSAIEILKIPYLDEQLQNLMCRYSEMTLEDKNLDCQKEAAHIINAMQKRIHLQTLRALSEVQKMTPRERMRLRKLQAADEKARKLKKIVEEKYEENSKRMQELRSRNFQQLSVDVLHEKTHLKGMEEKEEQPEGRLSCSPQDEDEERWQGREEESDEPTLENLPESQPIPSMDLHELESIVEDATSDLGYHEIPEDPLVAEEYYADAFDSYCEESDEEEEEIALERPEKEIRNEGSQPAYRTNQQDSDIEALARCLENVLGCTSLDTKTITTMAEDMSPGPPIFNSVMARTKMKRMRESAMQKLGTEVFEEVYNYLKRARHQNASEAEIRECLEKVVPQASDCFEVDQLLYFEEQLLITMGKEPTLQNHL

CSNK1A1 = molecular target: T6, CSNK1A1 (Homo sapiens, UniProt P48729); details: read-out: % control activity remaining
T6 construct: purchased Eurofins DiscoverX KINOMEscan
T6 sequence (P48729 whole entry): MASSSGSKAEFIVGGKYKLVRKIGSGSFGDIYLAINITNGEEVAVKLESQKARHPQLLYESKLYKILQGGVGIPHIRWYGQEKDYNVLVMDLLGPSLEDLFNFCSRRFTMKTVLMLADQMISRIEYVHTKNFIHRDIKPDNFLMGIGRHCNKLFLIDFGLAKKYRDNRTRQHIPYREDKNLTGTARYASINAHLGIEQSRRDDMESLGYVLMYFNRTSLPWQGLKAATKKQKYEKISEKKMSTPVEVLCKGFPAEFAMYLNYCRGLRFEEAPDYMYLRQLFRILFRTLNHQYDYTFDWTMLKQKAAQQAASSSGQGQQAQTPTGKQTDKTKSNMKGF

PCTK3 = molecular target: T7, PCTK3 (Homo sapiens, UniProt Q07002); details: read-out: % control activity remaining
T7 construct: purchased Eurofins DiscoverX KINOMEscan

MST4 = molecular target: T8, MST4 (Homo sapiens, UniProt Q9P289); details: read-out: % control activity remaining
T8 construct: purchased Eurofins DiscoverX KINOMEscan
T8 sequence (Q9P289 whole entry): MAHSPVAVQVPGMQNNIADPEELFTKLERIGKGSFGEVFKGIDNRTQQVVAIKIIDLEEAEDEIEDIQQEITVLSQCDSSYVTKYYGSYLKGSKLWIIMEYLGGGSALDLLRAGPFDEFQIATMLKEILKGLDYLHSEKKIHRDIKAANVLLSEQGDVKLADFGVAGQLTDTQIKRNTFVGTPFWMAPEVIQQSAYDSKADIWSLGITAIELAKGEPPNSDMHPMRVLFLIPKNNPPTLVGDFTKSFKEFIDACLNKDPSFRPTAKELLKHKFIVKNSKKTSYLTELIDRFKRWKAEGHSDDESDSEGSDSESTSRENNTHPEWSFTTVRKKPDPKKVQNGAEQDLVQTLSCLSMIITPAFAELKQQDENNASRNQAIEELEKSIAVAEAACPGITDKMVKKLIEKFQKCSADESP

KIT(L576P) = molecular target: T9, KIT(L576P) (Homo sapiens, UniProt P10721, L576P); details: read-out: % control activity remaining
T9 construct: purchased Eurofins DiscoverX KINOMEscan
T9 sequence (P10721 26-976 L576P): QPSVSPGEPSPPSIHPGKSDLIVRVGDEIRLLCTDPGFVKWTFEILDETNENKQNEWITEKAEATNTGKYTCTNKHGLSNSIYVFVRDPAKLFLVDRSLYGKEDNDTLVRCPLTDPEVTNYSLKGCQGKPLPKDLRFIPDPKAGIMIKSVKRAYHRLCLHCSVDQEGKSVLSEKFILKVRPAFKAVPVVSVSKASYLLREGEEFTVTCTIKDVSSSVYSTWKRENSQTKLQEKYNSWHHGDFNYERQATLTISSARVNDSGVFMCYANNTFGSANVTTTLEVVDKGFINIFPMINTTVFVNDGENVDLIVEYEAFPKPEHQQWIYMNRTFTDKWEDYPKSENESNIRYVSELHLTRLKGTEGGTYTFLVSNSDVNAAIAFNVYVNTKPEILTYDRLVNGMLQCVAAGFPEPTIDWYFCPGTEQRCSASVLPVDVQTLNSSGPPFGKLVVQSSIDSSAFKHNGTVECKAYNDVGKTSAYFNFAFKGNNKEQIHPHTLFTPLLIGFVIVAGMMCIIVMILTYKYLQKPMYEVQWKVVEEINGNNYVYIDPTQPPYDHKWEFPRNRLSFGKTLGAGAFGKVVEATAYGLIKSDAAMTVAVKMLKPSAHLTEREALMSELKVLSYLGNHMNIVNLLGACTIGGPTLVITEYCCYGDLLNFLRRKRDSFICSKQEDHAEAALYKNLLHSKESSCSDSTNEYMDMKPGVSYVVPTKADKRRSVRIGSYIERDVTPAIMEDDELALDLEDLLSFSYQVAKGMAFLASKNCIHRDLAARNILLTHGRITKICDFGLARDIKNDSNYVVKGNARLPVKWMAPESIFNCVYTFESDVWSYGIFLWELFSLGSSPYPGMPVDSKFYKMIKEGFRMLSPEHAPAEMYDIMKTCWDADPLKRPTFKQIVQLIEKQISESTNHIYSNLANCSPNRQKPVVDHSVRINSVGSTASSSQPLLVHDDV

DDR2 = molecular target: T10, DDR2 (Homo sapiens, UniProt Q16832); details: read-out: % control activity remaining
T10 construct: purchased Eurofins DiscoverX KINOMEscan
T10 sequence (Q16832 22-855): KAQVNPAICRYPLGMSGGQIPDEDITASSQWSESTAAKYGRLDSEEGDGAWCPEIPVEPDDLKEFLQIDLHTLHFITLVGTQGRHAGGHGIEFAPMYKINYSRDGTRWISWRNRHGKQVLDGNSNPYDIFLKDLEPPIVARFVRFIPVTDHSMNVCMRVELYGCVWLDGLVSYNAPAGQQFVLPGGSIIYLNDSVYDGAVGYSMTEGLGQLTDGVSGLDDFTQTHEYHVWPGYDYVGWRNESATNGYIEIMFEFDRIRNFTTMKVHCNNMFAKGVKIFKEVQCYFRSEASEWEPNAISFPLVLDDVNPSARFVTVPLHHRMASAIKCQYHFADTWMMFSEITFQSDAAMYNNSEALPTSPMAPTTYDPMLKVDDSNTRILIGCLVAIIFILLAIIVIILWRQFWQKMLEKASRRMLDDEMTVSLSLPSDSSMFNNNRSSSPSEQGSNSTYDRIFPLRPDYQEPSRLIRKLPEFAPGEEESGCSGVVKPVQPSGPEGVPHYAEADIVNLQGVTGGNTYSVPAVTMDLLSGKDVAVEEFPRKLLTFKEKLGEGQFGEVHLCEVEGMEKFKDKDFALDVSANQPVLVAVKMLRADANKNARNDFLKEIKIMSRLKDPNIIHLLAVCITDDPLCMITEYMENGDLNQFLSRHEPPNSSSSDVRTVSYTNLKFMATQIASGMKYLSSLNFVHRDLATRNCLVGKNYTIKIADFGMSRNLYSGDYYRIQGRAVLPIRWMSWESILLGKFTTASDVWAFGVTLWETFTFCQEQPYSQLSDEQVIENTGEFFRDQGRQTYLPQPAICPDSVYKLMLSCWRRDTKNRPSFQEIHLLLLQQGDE

ABL1-phosphorylated = molecular target: T11, ABL1-phosphorylated (Homo sapiens, UniProt P00519); details: read-out: % control activity remaining
T11 construct: purchased Eurofins DiscoverX KINOMEscan
T11 sequence (P00519 whole entry): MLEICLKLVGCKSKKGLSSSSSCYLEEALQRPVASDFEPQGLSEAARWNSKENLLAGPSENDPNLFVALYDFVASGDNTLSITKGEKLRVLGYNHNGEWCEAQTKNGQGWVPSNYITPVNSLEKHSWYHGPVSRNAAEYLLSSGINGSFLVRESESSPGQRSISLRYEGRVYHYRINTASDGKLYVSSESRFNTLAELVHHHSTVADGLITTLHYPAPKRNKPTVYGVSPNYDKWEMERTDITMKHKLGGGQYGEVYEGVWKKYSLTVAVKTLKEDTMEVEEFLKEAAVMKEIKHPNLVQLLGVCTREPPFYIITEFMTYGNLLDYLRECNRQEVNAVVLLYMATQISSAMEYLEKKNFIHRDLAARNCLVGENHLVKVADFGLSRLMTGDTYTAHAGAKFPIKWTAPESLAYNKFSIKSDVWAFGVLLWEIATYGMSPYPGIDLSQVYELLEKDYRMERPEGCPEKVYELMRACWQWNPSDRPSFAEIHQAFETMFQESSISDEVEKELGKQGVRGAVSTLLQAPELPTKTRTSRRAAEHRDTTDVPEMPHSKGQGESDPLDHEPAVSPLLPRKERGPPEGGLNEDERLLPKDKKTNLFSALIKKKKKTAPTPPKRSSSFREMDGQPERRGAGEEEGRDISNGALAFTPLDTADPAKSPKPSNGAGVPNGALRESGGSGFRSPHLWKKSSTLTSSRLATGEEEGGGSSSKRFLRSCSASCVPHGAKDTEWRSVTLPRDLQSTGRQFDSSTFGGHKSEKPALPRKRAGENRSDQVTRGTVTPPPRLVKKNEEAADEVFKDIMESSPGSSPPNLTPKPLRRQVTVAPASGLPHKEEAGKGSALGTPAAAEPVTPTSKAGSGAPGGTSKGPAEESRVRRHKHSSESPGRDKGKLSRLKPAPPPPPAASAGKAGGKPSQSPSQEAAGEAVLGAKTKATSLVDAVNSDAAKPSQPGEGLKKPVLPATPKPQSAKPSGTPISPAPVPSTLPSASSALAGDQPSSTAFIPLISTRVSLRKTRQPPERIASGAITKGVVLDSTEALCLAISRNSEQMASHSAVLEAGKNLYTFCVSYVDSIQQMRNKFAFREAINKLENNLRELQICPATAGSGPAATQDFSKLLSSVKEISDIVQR

STK35 = molecular target: T12, STK35 (Homo sapiens, UniProt Q8TDR2); details: read-out: % control activity remaining
T12 construct: purchased Eurofins DiscoverX KINOMEscan

HIPK4 = molecular target: T13, HIPK4 (Homo sapiens, UniProt Q8NE63); details: read-out: % control activity remaining
T13 construct: purchased Eurofins DiscoverX KINOMEscan
T13 sequence (Q8NE63 1-616): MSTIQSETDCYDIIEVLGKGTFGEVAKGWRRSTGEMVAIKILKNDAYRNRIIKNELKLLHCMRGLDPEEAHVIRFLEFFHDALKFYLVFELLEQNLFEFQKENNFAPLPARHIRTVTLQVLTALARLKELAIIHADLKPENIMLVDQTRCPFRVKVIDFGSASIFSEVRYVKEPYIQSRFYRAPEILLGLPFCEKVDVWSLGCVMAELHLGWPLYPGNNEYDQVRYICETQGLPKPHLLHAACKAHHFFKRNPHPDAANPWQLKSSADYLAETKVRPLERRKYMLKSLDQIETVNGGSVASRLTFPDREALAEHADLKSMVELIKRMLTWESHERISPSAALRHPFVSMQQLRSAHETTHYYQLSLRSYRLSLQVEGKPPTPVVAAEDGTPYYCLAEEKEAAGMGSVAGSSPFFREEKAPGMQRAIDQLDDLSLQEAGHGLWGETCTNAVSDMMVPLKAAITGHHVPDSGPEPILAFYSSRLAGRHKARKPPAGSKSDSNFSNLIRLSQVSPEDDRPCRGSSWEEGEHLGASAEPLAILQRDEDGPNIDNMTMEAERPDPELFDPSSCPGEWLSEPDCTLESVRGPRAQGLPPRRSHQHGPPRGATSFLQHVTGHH

MEK2 = molecular target: T14, MEK2 (Homo sapiens, UniProt P36507); details: read-out: % control activity remaining
T14 construct: purchased Eurofins DiscoverX KINOMEscan
T14 sequence (P36507 whole entry): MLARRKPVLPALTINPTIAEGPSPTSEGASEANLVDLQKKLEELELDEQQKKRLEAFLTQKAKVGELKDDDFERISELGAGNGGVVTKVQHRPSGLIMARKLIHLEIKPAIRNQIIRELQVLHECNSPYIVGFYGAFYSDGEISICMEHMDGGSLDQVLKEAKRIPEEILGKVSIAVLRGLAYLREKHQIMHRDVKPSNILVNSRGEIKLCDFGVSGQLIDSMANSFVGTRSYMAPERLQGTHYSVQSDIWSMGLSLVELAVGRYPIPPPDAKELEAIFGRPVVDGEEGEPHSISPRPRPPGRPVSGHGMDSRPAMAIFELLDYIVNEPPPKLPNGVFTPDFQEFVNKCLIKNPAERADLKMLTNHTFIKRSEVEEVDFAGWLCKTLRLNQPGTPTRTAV

T2 sequence (Q13523 whole entry): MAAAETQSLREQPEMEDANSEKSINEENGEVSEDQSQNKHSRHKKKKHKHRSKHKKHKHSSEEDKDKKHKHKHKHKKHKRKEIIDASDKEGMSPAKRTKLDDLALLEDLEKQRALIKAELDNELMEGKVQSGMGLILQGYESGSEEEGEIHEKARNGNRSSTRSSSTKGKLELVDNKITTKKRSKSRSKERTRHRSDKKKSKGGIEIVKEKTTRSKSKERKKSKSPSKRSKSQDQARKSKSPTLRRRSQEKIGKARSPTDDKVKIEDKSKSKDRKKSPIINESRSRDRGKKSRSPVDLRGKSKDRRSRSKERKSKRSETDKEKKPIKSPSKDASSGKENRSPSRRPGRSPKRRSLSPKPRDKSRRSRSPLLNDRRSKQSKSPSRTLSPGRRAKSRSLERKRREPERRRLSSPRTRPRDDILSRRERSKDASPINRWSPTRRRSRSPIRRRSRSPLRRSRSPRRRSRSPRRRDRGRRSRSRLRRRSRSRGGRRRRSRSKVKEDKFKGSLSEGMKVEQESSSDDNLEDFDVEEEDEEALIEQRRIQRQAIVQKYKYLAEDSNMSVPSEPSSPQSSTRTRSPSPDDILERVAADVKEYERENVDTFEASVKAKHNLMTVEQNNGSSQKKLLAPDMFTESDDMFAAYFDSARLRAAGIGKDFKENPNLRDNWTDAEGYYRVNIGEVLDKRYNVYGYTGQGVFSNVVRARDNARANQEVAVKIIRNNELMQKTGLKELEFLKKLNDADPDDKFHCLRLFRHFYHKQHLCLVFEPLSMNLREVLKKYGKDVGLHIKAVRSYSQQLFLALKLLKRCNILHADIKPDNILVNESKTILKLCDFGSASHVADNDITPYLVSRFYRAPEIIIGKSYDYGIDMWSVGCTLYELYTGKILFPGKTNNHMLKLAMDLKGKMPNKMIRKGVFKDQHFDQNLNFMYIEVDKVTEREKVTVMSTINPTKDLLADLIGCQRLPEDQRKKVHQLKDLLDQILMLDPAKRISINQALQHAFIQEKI
T1 sequence (Q9UK32 73-330 limits assumed): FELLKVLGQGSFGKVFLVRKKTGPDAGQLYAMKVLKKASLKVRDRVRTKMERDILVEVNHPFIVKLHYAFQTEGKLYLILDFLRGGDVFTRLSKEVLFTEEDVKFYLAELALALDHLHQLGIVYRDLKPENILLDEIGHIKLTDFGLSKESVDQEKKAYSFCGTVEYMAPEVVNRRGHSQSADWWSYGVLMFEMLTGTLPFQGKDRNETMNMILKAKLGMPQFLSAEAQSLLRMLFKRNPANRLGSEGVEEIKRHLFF

Row | SMILES | remaining binding at 1 µM [1] | remaining binding at 1 µM (PRP4) | remaining binding at 1 µM (PCTK2) | remaining binding at 1 µM (PAK2) | remaining binding at 1 µM (NEK11) | remaining binding at 1 µM (CSNK1A1) | remaining binding at 1 µM (PCTK3) | remaining binding at 1 µM (MST4) | remaining binding at 1 µM (KIT(L576P)) | remaining binding at 1 µM (DDR2) | remaining binding at 1 µM (ABL1-phosphorylated) | remaining binding at 1 µM (STK35) | remaining binding at 1 µM (HIPK4) | remaining binding at 1 µM (MEK2) | inhibition at 1 µM (PCTK2; read-out: Probe binding inhibited, 1 μM)
1 | Clc1cc(NCC2CC2)c2ncc(-c3ccc4[nH]ncc4c3)n2n1 [compound 2, 6-Chloro-N-(cyclopropylmethyl)-3-(1H-indazol-5-yl)imidazo[1,2-b]pyridazin-8-amine] | 27% | 60% | 98% | 71% | 88% | 100% | 79% | 88% | 1.2% | 86% | 94% | 77% | 8.6% | 92% | 
2 | O=C(CN1CCOCC1)N[C@H]1CC[C@H](Nc2cc(Cl)nn3c(-c4ccc5[nH]ncc5c4)cnc23)CC1 [compound 26] | 13% | 97% | 66% | 76% | 100% | 58% | 80% | 84% | 0% | 98% | 54% | 97% | 5.1% | 89% | 
3 | CN1CCC(CNc2cc(Cl)nn3c(-c4cc5nc(Nc6ccccc6)[nH]c5cc4F)cnc23)CC1 [compound 31, 6-Chloro-3-(6-fluoro-2-(phenylamino)-1H-benzo[d]imidazol-5-yl)-N-((1-methylpiperidin-4-yl)methyl)imidazo[1,2-b]pyridazin-8-amine] | 97% | 93% | 2.7% | 91% | 92% | 97% | 88% | 100% | 61% | 100% | 81% | 100% | 71% | 80% | 97%

— paper PMC6437697 (Journal of Medicinal Chemistry, 2019)
